One data set deals with hKCNQ1/MinK (Homo sapiens, UniProt P51787). In words: biochemical. The class given is biochemical.
In the next data set the target is hNav1.5 Peak (Homo sapiens, UniProt Q14524). Kind of data set: In vitro assessment of ion channels: hNav1.5 Peak. The class given is biochemical.
The next data set has as its target hNav1.5 Late (Homo sapiens, UniProt Q14524). In words: In vitro assessment of ion channels: hNav1.5 Late. The class given is biochemical.
The target of another data set is hCav1.2 (Homo sapiens, UniProt Q13936). In words: biochemical.
The target of a further data set is hERG (Homo sapiens, UniProt Q12809). Kind of data set: biochemical.
Sequence of hERG (Q12809 whole entry): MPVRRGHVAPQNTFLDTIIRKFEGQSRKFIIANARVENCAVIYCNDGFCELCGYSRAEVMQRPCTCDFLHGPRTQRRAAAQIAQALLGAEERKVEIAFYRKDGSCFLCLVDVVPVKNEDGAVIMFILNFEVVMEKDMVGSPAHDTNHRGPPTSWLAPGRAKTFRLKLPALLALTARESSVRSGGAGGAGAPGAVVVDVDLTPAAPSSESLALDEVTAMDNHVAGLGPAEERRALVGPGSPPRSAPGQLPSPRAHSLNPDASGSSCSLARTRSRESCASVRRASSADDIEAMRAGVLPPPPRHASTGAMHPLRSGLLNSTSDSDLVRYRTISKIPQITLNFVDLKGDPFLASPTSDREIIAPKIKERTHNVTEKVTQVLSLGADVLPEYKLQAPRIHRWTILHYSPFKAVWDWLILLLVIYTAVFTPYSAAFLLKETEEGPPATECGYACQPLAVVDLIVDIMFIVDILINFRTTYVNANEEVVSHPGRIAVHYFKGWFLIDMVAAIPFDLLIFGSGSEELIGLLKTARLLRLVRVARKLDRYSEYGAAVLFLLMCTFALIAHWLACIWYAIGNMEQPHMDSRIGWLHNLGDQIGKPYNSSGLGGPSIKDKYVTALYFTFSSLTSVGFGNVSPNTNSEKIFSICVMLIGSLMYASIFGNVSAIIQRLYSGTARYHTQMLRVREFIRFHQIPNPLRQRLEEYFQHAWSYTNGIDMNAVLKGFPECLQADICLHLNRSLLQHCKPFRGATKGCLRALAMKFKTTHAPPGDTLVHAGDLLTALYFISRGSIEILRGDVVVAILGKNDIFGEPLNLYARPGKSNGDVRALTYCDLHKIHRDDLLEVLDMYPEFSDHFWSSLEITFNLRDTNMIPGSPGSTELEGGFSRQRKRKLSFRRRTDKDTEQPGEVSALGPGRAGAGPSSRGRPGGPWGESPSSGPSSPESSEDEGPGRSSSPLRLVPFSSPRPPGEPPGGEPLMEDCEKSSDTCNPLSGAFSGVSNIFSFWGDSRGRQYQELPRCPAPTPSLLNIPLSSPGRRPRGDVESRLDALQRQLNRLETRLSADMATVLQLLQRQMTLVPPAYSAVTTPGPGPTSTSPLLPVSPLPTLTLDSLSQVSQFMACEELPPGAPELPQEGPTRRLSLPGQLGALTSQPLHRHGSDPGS
Data set [1] is described as follows: QTc (QTcV) prolongation in dogs after oral dosing, with plasma level at 1 hr. The conditions noted are these: for concentration at 1 h: dog, plasma, po; for Max. QTcv / QTcV @ 1 hr / C1 hr / corrected QT (QTc) prolongation in dogs: dogs; for Max. QTcv / QTcV @ 1 hr / C1 hr: PO; for QTcV @ 1 hr / C1 hr: 1 hr.
The subject of data set [2] is M. tb H37Rv. The class given is cell-based, Mycobacterium tuberculosis.
Data set [3] deals with M. tb H37Rv. Kind of data set: microbe, parasite or virus in culture. The class given is cell-based, Mycobacterium tuberculosis. Particulars: for MIC: Mycobacterium tuberculosis, H37RV, read-out: M. tb H37Rv: MIC-MABA.
Another data set is described as follows: VERO cell cytotoxicity. Format: cell-based. The conditions noted are these: African green monkey, VERO cells. An excerpt:
(§1) The procedures described in Falzari 2005 were used to generate the data shown in column 2 of Table 4.

Data set [4] has as its system M. tb H37Rv. In words: microbe, parasite or virus in culture. The class given is cell-based. The conditions noted are these: Mycobacterium tuberculosis; for MIC: read-out: M. tb H37Rv: MIC-LORA; for inhibition at 20 µg/mL: at 20 μg/mL, read-out: M. tb H37Rv: MIC-LORA: Comment (% inhibition).
The subject of a further data set is Mycobacterium abscessus. In words: M. ab_ATCC MIC MHII. Format: cell-based. Particulars: for MIC: Mycobacteroides abscessus, read-out: M. ab_ATCC: MIC MHII: MIC. An excerpt: The procedure described in Franz 2017 was used to generate the data shown in column 5 of Table 4.
A further data set concerns VERO Cell. Kind of data set: VERO cell cytotoxicity. Format: cell-based.
Description: as §1

Setting [5] is: Table 3, read-out: hNav1.5 Late IC50.

≈ marks a conversion by molar mass, not a printed value. Like-named read-outs stand apart in the source and are kept apart here.

Sequence of hNav1.5 Late (Q14524 whole entry): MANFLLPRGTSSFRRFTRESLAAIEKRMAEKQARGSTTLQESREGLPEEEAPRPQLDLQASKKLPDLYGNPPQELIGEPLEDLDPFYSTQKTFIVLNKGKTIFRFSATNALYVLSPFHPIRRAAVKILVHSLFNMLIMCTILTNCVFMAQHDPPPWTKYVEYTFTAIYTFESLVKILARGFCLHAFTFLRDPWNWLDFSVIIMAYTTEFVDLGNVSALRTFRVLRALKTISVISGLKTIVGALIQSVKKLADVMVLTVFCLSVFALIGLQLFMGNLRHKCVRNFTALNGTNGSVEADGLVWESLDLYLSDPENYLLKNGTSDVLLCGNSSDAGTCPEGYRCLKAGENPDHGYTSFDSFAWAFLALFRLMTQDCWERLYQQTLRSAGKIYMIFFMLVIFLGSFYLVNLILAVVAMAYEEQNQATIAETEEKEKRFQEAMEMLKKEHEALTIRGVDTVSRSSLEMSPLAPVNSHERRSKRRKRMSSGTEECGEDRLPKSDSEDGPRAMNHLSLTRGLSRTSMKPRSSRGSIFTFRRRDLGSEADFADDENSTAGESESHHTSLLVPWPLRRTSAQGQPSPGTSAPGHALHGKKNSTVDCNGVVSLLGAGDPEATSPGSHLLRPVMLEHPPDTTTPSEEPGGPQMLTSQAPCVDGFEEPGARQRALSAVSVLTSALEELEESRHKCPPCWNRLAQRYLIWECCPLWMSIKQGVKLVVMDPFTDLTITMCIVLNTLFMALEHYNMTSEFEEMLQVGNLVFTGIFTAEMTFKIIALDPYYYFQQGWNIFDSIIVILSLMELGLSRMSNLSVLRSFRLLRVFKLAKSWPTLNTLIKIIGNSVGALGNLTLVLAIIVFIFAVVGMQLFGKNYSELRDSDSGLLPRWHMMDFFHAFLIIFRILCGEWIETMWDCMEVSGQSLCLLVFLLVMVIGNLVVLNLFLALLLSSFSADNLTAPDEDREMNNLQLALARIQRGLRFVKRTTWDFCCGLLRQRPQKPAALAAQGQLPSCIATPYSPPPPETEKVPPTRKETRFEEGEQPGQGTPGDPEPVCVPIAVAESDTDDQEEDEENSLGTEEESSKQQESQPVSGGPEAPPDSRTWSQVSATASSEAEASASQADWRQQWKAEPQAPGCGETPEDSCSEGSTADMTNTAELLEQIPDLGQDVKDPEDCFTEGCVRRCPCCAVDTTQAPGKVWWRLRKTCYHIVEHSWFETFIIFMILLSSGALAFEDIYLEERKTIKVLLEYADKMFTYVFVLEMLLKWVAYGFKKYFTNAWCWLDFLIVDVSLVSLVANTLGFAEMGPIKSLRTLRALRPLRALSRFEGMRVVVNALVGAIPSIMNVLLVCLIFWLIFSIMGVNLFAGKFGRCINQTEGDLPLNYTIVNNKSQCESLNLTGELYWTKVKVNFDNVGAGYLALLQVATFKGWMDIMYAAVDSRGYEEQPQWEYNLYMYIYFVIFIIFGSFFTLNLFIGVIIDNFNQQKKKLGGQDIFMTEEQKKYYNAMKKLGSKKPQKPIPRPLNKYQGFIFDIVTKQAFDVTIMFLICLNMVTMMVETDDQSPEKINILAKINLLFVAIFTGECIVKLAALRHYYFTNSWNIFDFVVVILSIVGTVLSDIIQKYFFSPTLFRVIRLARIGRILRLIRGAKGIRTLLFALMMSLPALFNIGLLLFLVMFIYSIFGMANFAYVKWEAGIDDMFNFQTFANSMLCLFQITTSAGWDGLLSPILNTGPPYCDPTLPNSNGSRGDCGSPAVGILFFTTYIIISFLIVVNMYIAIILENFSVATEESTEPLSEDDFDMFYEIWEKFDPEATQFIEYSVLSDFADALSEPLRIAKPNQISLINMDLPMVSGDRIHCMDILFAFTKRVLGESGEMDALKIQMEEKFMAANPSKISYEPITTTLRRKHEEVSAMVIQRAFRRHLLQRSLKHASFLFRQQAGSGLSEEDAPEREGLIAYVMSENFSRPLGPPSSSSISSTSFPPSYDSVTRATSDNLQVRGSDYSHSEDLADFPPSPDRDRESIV

Regarding `C[C@@H]1C(NC(=O)c2cc3c(F)cc(F)cc3[nH]2)CC2C[C@@H]1C2(C)C` (some centres unmarked) [JS-2-02], the IC50 was 6.2 µM against hKCNQ1/MinK (Table 2); 5.17 µM against hNav1.5 Peak (Table 2); over 10 µM on hNav1.5 Late (Table 2, read-out: hNav1.05 Late IC50); over 10 µM against hCav1.2 (Table 2); over 10 µM against hERG (hERG IC50, Table 2). In data set [1] (50 mg/kg), this compound showed a concentration at 1 h of 1200 ng/mL. The “Max. QTcv” value is on record as 6.8 ms in [1] (50 mg/kg) and 37 ms in [1] (150 mg/kg). For the same compound, the “QTcV @ 1 hr” value stood at 1.2 ms in data set [1] (50 mg/kg) and 2.8 ms in data set [1] (150 mg/kg). This compound returned a C1 hr in data set [1] (150 mg/kg) of 1100 ng/mL.
In the case of `C[Si]1(C)CCC(NC(=O)c2cc3c(F)cc(F)cc3[nH]2)CC1` [MPL-204, N-(1,1-dimethylsilinan-4-yl)-4,6-difluoro-1H-indole-2-carboxamide], the “hKCNQ1 channel inhibition” value on hKCNQ1/MinK is “do not inhibit the hKCNQ1 channel”. For the same compound, the concentration for half-maximal inhibition (IC50) is 7.56 µM at hKCNQ1/MinK (Table 3); over 10 µM against hNav1.5 Peak (Table 3); over 10 µM at hNav1.5 Late (setting [5]); over 10 µM against hCav1.2 (Table 3); over 32 µg/mL in the data set “VERO cell cytotoxicity”; over 10 µM on hERG (hERG IC50, Table 3). Moreover, the MIC against M. tb H37Rv [2] was 0.003 µg/mL (≈ 0.0093 µM); with M. tb H37Rv [3] it was 0.0035 µg/mL (≈ 0.0109 µM); in the data set on M. tb H37Rv [4], over 32 µg/mL; in the data set on Mycobacterium abscessus, over 64 µg/mL.
Take `Cc1cc(C)c2cc(C(=O)NC3CC[Si](C)(C)C3)[nH]c2c1` (single isomer, unassigned) [MPL-296B]: the “M. tb H37Rv: MIC-MABA” value in the data set on M. tb H37Rv [3] is given as 0.052- μg/mL. For the same compound, the “VERO Cell: Cytotoxicity-IC50” value with VERO Cell was over 64 µg/mL. Besides, the “M. ab_ATCC: MIC MHII: MIC” value in the data set on Mycobacterium abscessus was found to be 0.5 µg/mL.
For `CC1(C)CCC(NC(=O)c2cc3c(Cl)cc(Cl)cc3[nH]2)CC1` [NITD-304], the IC50 is 0.71 µM on hKCNQ1/MinK; over 10 µM at hNav1.5 Peak; 6.4 µM on hNav1.5 Late (read-out: hNav1.05 Late IC50); 2.01 µM against hCav1.2 (Table 2); 2.01 µM at hCav1.2 (Table 3); over 10 µM against hERG (hERG IC50, Table 2). Moreover, the IC50 was over 10 µM against hERG (hERG IC50, Table 3) and over 50 µM at hERG (hERG IC50, stated in text). Moreover, the concentration at 1 h in data set [1] (150 mg/kg) amounted to 300 ng/mL. Moreover, the “corrected QT (QTc) prolongation in dogs” value in data set [1] is recorded as “dramatic corrected QT (QTc) prolongation”. Besides, the “Max. QTcv” value in data set [1] (50 mg/kg) is 49 ms; in data set [1] (150 mg/kg), 120 ms. The compound also came in with a C1 hr in [1] (50 mg/kg) of 250 ng/mL. Besides, the “QTcV @ 1 hr” value was -0.6 ms in [1] (50 mg/kg) and 0.3 ms in [1] (150 mg/kg).
As to `Cc1cc(C)c2cc(C(=O)NC3CC[Si](C)(C)C3)[nH]c2c1` (single isomer, unassigned) [MPL-296A], the “M. tb H37Rv: MIC-MABA” value with M. tb H37Rv [3] was 0.0007- μg/mL. The “VERO Cell: Cytotoxicity-IC50” value in the data set on VERO Cell was over 64 µg/mL. The “M. ab_ATCC: MIC MHII: MIC” value in the data set with Mycobacterium abscessus is under 0.063 µg/mL.
As for `C[Si]1(C)CCC(NC(=O)c2cc3c(Cl)cc(Cl)cc3[nH]2)CC1` [MPL-203, 4,6-dichloro-N-(1,1-dimethylsilinan-4-yl)-1H-Indole-2-carboxamide], the “hKCNQ1 channel inhibition” value at hKCNQ1/MinK is given as “do not inhibit the hKCNQ1 channel”. In addition, the IC50 was 2.71 µM against hKCNQ1/MinK (Table 3); over 10 µM on hNav1.5 Peak (Table 3); over 10 µM on hNav1.5 Late (setting [5]); over 10 µM against hCav1.2 (Table 3); over 32 µg/mL in “VERO cell cytotoxicity”; over 10 µM against hERG (hERG IC50, Table 3). In addition, the MIC in the data set with M. tb H37Rv [2] was 0.003 µg/mL (≈ 0.00844 µM); in the data set with M. tb H37Rv [3], 0.0033 µg/mL (≈ 0.00929 µM); in the data set on M. tb H37Rv [4], over 32 µg/mL; with Mycobacterium abscessus it was over 64 µg/mL.
For the compound `Cc1cc(Br)c2cc(C(=O)NC3CC[Si](C)(C)CC3)[nH]c2c1` [MPL-337, 4-bromo-N-(1,1-dimethylsilinan-4-yl)-6-methyl-1H-indole-2-carboxamide], the MIC was 0.007 µg/mL (≈ 0.0185 µM) in the data set with M. tb H37Rv [3], over 20 µg/mL in the data set with M. tb H37Rv [4] and over 64 µg/mL in the data set on Mycobacterium abscessus. In “VERO cell cytotoxicity”, the IC50 is over 20 µg/mL.
Turning to `COCCOc1cc(F)cc2[nH]c(C(=O)NC3CC[Si](C)(C)CC3)cc12` [MPL-384, N-(1,1-dimethylsilinan-4-yl)-6-fluoro-4-(2-methoxyethoxy)-1H-indole-2-carboxamide], the MIC was 0.0308 µg/mL (≈ 0.0814 µM) in the data set on M. tb H37Rv [3], 9.36 µg/mL (≈ 24.7 µM) in the data set with M. tb H37Rv [4] and over 64 µg/mL in the data set on Mycobacterium abscessus. In “VERO cell cytotoxicity”, this compound returned an IC50 of over 20 µg/mL.
As to `CC1(C)CCC(NC(=O)c2cc3c(F)cc(F)cc3[nH]2)CC1` [NITD-349], the IC50 at hKCNQ1/MinK was 0.058 µM; against hNav1.5 Peak, over 10 µM; at hNav1.5 Late (read-out: hNav1.05 Late IC50), over 10 µM; at hNav1.5 Late (read-out: hNav1.5 Late IC50) it was over 10 µM; on hCav1.2 (Table 2), 9.53 µM; against hCav1.2 (Table 3), 9.5 µM. Moreover, the IC50 is over 10 µM against hERG (hERG IC50, Table 2); over 10 µM against hERG (hERG IC50, Table 3); over 50 µM against hERG (hERG IC50, stated in text). Further, the “corrected QT (QTc) prolongation in dogs” value in data set [1] is “dramatic corrected QT (QTc) prolongation”. The “Max. QTcv” value in data set [1] (50 mg/kg) and in [1] (150 mg/kg) was 170 ms throughout. The C1 hr in [1] (50 mg/kg) is 790 ng/mL. Besides, the figures for the “QTcV @ 1 hr” value in [1] (50 mg/kg) and in data set [1] (150 mg/kg) were 11 ms and 13.6 ms, respectively.
Turning to `Cc1cc(C)c2cc(C(=O)NC3CC[Si]4(CCCC4)CC3)[nH]c2c1` [MPL-264, 4,6-dimethyl-N-(5-silaspiro[4.5]decan-8-yl)-1H-indole-2-carboxamide], the MIC is 0.011 µg/mL (≈ 0.0323 µM) in the data set on M. tb H37Rv [3], over 20 µg/mL in the data set with M. tb H37Rv [4] and 64 µg/mL (≈ 188 µM) with Mycobacterium abscessus. The IC50 in “VERO cell cytotoxicity” was over 20 µg/mL. In addition, the inhibition at 20 µg/mL with M. tb H37Rv [4] was 85%.
`Cc1cc(C)c2cc(C(=O)NC3CC[Si]4(CCCCC4)CC3)[nH]c2c1` [MPL-265, 4,6-dimethyl-N-(6-silaspiro[5.5]undecan-3-yl)-1H-indole-2-carboxamide]: the MIC was 0.014 µg/mL (≈ 0.0395 µM) in the data set with M. tb H37Rv [3], over 20 µg/mL with M. tb H37Rv [4] and over 64 µg/mL in the data set on Mycobacterium abscessus. For the same compound, the IC50 in “VERO cell cytotoxicity” was over 20 µg/mL. The inhibition at 20 µg/mL in the data set on M. tb H37Rv [4] came out at 84%.
Take `Cc1cc(C(F)(F)F)c2cc(C(=O)NC3CCC[Si](C)(C)CCC3)[nH]c2c1` [MPL-386, N-(1,1-dimethylsilocan-5-yl)-6-methyl-4-(trifluoromethyl)-1H-indole-2-carboxamide]: the MIC with M. tb H37Rv [3] was under 0.004 µg/mL; in the data set on M. tb H37Rv [4], over 20 µg/mL; with Mycobacterium abscessus, over 64 µg/mL. In the data set “VERO cell cytotoxicity”, this compound gave an IC50 of over 20 µg/mL.
For `Cc1cc(C)c2cc(C(=O)NC3CCC[Si](C)(C)CCC3)[nH]c2c1` [MPL-303, N-(1,1-dimethylsilocan-5-yl)-4,6-dimethyl-1H-indole-2-carboxamide], the values for the MIC with M. tb H37Rv [3], in the data set with M. tb H37Rv [4] and in the data set on Mycobacterium abscessus were under 0.004 µg/mL, 4.23 µg/mL (≈ 12.3 µM) and 4 µg/mL (≈ 11.7 µM), respectively. The half-inhibitory concentration (IC50) in “VERO cell cytotoxicity” was over 20 µg/mL.

The values above are taken from US20230040909A1 (priority 2019, published 2023).
